The subject of one series is HepG2 cells. The series is described as follows: Delivery through intravenous injection, HepG2 Xeno. Format: in vivo, Balb/C nude mouse. To be noted: loaded on particles of Example 2-(3)-4)-(i), tail vein, 4 mg/kg. As to the method: Xeno was prepared in Balb/C nude mouse using HepG2 cells as a human liver cancer cell line. […] An injecting dose of doxorubicin was 4 mg/kg (mouse weight), and 80 μg of doxorubicin and 160 μg of particles were used based on an average body weight of 20 g of 5 to 8-week old Balb/C nude mouse.

Series [1] in a line: Release of bioactive materials from loaded porous silica particles. Format: physicochemical. To be noted: doxorubicin loaded on porous silica particles, SBF (pH 7.4), 37° C. As to the method: 5 mg of porous silica particles loaded with doxorubicin ([…]) was dispersed in SBF (pH 7.4) (total volume: 1 ml), and then the solution was placed in a 1.5 ml tube and maintained in a dynamic condition of performing horizontal agitation at 20 rpm and 37° C. At each time point, the porous silica solution loaded with doxorubicin was settled using a centrifuge, and the absorbance (λa,b=480 nm) of the supernatant was measured to determine an amount of released doxorubicin.
10 mg of porous silica particles loaded with doxorubicin (2 mg) were dispersed in SBF (pH 7.4) inside a dialysis membrane (total volume: 0.5 ml), and then the dialysis membrane was placed in a 1.5 ml SBF tube (pH 7.4) and maintained in static conditions at 37° C. At each time point, the porous silica solution loaded with doxorubicin was settled using a centrifuge, and the absorbance (λab=480 nm) of the supernatant was measured to determine an amount of released doxorubicin.
The solution was maintained in a dynamic condition of performing horizontal agitation at 200 rpm and 37° C.
[…] of porous silica particles loaded with sorafenib (0.1 Mg) were dispersed in 10 ml of 1×PBS. The solution was maintained under a dynamic condition of performing horizontal agitation at 200 rpm and 37° C. At each time point, the porous silica solution loaded with sorafenib was settled using a centrifuge, and the absorbance (λab=270 nm) of the supernatant was measured to determine an amount of released sorafenib.
0.1 mg of particles loaded with retinoic acid were placed in a PBS (pH 7.4) solution containing 5% ethanol and maintained at 37° C. while performing horizontal agitation.
5 mg of particles loaded with p53 peptide were placed in 5 ml of 1×PBS containing 10% FBS or 5 ml of 1×PBS, and maintained under a dynamic environment while rotating at 20 rpm and 37° C. At each time point, centrifugation was conducted at 8500 rpm and a fluorescence intensity of 5(6)-carboxyfluorescein (FAM), which is a fluorescent label bound to p53 peptide from the supernatant ([…]: 480 nm, Emission: 520 nm).
10 μl of porous silica particles loaded with Cy5-siRNA was resuspended in SBF (pH 7.4, 37° C.) (total volume: 0.5 ml) and placed in a 1.5 ml tube. Release of siRNA was performed while horizontally agitating at 60 rpm and 37° C. At each time point, the siRNA-loaded porous silica solution was settled using a centrifuge, and a fluorescence intensity of the supernatant was measured.
20 μg of porous silica particles loaded with siRNA (1 μg) of the above 1) was dispersed in SBF (pH 7.4) inside a dialysis membrane (total volume: 0.5 ml), and the dialysis membrane was placed in a 1.5 ml SBF (pH 7.4) tube, and static conditions at 37° C. were maintained. At each time point, the siRNA-loaded porous silica solution was settled using a centrifuge, and the absorbance (λab=480 nm) of the supernatant was measured to determine an amount of released siRNA.
20 μg of porous silica particles loaded with pDNA (1 μg) were dispersed in SBF (pH 7.4) inside a dialysis membrane (total volume 0.5 ml), and the dialysis membrane was placed in a 1.5 ml SBF (pH 7.4) tube while shaking at 60 rpm and 37° C. At each time point, the porous silica solution loaded with pDNA was settled using a centrifuge and the absorbance (λab=480 nm) of the supernatant was measured to determine an amount of released pDNA.
Porous silica particles loaded with linear DNA (3 μg of linear DNA, 100 μg of porous silica particles) were resuspended in PBS (pH 7.4, 37° C.), and a dialysis membrane having a pore diameter of 20 kDa (the same tube as the tube in FIG. 18). After placing the suspension in the membrane, a dialysis tube was soaked in 1.5 ml of PBS.

Series [2] in a line: Bioactive material loading capacity of porous silica particles. The following applies: particles of Example 2-(3)-4)-(i), distilled water, 1 hour. Format: physicochemical. The method, then:
After loading the negatively charged porous silica particles of Example 2-(3)-4)-(i) with doxorubicin, the absorbance of the supernatant was measured to determine an amount of loaded doxorubicin, and a loading rate (“loading capacity”) of the particles was calculated.
Specifically, 5 mg of porous silica particle powders and 2 mg of doxorubicin were mixed in 1 ml of distilled water, and then settled at room temperature for 1 hour. Subsequently, the solution was centrifuged at 8000 rpm for 10 minutes to settle the particles, and absorbance (λab=480 nm) of the supernatant was measured to determine an amount of the low molecular weight compound remaining in the supernatant without loading. Further, an amount of the loaded low molecular weight compound was calculated (an amount of the loaded low molecular weight compound=an amount of initially added low molecular weight compound−an amount of the low molecular weight compound remaining in the supernatant) so as to determine the loading capacity (loading capacity=bioactive material/porous silica particles, w/w %)
After loading the negatively charged porous silica particles in Example 2-(3)-4)-(i) with irinotecan, absorbance of the supernatant was measured and an amount of loaded irinotecan was calculated, and the loading capacity thereof was determined. […]

[3] abbreviates: static condition, dialysis membrane.

Some results are limits rather than exact numbers.

On to `COc1cccc2c1C(=O)c1c(O)c3c(c(O)c1C2=O)C[C@@](O)(C(=O)CO)C[C@@H]3O[C@H]1C[C@H](N)[C@H](O)[C@H](C)O1` [doxorubicin], for which the “tumor growth inhibition compared to injection of the material alone” value in the series with HepG2 cells is reported as “excellent”. In series [1] (dynamic condition, 20 rpm), the “time to reach a release rate of 50%” value is “about 1.5 hours” and the “time up to which continuously released” value was at least 12 h. In series [1] (setting [3]), the “time to reach a release rate of 50%” value is given as “about 6 days” and the “time up to which continuously released” value is at least 480 h. In series [2], the “loading of doxorubicin on the particles (colour of solution after centrifugation)” value is recorded as “mostly loaded on the particles”.

The record behind these values is US20200163885A1, “COMPOSITION FOR DELIVERING PHYSIOLOGICALLY ACTIVE INGREDIENTS INTO BLOOD VESSEL” (LEMONEX INC., priority 2017, published 2020).
